Calls of active or inactive are those of the source. No cut-off for these calls is given here.
Experiments:
DNA polymerase beta = DNA polymerase beta (Homo sapiens, UniProt P06746); assay: Inhibition of DNA polymerase beta lyase activity
A2780 = assay: Cytotoxicity against human A2780 cells; format: functional, cell-based
[1] = biological target: T1, M-phase inducer phosphatase 2 (Homo sapiens) (UniProt P30305); assay: (§1) Inhibition of GST-fused human recombinant Cdc25B2 (275-539) catalytic domain
T1 sequence (whole entry): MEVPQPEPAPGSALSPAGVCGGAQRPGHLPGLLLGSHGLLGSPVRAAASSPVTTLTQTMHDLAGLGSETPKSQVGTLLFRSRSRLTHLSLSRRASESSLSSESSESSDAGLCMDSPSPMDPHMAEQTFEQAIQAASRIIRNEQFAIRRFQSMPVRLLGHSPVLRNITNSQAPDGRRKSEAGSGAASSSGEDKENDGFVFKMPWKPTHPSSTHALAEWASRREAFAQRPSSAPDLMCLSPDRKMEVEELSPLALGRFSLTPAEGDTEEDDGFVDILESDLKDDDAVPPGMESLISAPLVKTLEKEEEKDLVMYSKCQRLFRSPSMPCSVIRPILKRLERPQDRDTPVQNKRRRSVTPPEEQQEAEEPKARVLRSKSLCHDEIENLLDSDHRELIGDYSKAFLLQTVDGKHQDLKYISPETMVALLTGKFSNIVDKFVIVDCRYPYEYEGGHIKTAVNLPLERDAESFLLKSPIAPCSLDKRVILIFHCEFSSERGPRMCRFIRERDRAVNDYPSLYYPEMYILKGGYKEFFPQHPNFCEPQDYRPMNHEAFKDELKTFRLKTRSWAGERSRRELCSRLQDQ

[2] = biological target: T2, M-phase inducer phosphatase 2 (Homo sapiens, UniProt P30305); assay: as §1
T2 sequence (P30305 whole entry): T1 sequence (whole entry)

| SMILES | Activity (DNA polymerase beta) | Activity (A2780) | Activity [1] | IC50 (DNA polymerase beta) [µM] | IC50 (A2780) [µM] | IC50 [2] [µM] |
| --- | --- | --- | --- | --- | --- | --- |
| C=C1CCC[C@H]2[C@](C)(Cc3cc(C(=O)OC)ccc3OCC=C(C)C)[C@@H](C)CC[C@]12C | inactive | inactive | inactive |  |  |  |
| C=C1CCC[C@H]2[C@](C)(CC3=C(O)C(=O)C=C(OC)C3=O)[C@@H](C)CC[C@]12C [ILIMAQUINONE] |  |  |  | 45.2 | 10.9 | 92 |
| O=c1ccn([C@H]2C[C@H](O)[C@@H](CO)O2)c(=O)[nH]1 | inactive | inactive | inactive |  |  |  |
| C=C1CCC[C@H]2[C@](C)(Cc3cc(C(=O)OC)ccc3O)[C@@H](C)CC[C@]12C | inactive | inactive | inactive |  |  |  |

Source: ChEMBL document CHEMBL1148924, “Marine sesquiterpenoids that inhibit the lyase activity of DNA polymerase beta” (J Nat Prod, 2004)
